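Assay format: 96-well plates, 48-hour exposure. GI50 = concentration required for 50% inhibition of growth.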 Calls of active or inactive are those of the source. Rule as the data show it: active = GI50 up to about 1.1 µM and inactive = higher.
Legend:
Test in all cases: NCI tumour cell line growth inhibition, 48 h
SW-620 = tested on: SW-620
OVCAR-3 = tested on: OVCAR-3
SNB-19 = tested on: SNB-19
RPMI-8226 = tested on: RPMI-8226
UACC-257 = tested on: UACC-257
SF-268 = tested on: SF-268
SK-MEL-28 = tested on: SK-MEL-28
Hs-578T = tested on: Hs-578T
HCT-15 = tested on: HCT-15
KM12 = tested on: KM12
HCC 2998 = tested on: HCC 2998
MOLT-4 = tested on: MOLT-4
PC-3 = tested on: PC-3
DU-145 = tested on: DU-145
SK-OV-3 = tested on: SK-OV-3
U-251 = tested on: U-251
M14 = tested on: M14
SK-MEL-2 = tested on: SK-MEL-2
TK-10 = tested on: TK-10
SN12C = tested on: SN12C
HL-60 = tested on: HL-60
EKVX = tested on: EKVX
HOP-62 = tested on: HOP-62
OVCAR-8 = tested on: OVCAR-8
A498 = tested on: A498
HCT-116 = tested on: HCT-116
T47D = tested on: T47D
NCI-H460 = tested on: NCI-H460
SF-295 = tested on: SF-295
MDA-MB-435 = tested on: MDA-MB-435
COLO 205 = tested on: COLO 205
NCI-H522 = tested on: NCI-H522
CCRF-CEM = tested on: CCRF-CEM
BT-549 = tested on: BT-549
OVCAR-4 = tested on: OVCAR-4
UACC-62 = tested on: UACC-62
SNB-75 = tested on: SNB-75
CAKI-1 = tested on: CAKI-1
HT-29 = tested on: HT-29
786-0 = tested on: 786-0
NCI/ADR-RES = tested on: NCI/ADR-RES
UO-31 = tested on: UO-31
SR = tested on: SR
LOX IMVI = tested on: LOX IMVI
K562 = tested on: K562
SK-MEL-5 = tested on: SK-MEL-5
ACHN = tested on: ACHN
MCF7 = tested on: MCF7
RXF 393 = tested on: RXF 393
NCI-H226 = tested on: NCI-H226
IGROV-1 = tested on: IGROV-1
MDA-N = tested on: MDA-N
MDA-MB-231 = tested on: MDA-MB-231
NCI-H23 = tested on: NCI-H23
A549 = tested on: A549
OVCAR-5 = tested on: OVCAR-5
SF-539 = tested on: SF-539
Malme-3M = tested on: Malme-3M
HOP-92 = tested on: HOP-92

O=C1N=C(c2ccccc2)OC1C(=O)c1ccccc1 (stereo unspecified)
GI50 (SW-620): > 100 µM (inactive)
GI50 (OVCAR-3): > 100 µM (inactive)
GI50 (SNB-19): > 100 µM (inactive)
GI50 (RPMI-8226): > 100 µM (inactive)
GI50 (UACC-257): > 100 µM (inactive)
GI50 (SF-268): > 100 µM (inactive)
GI50 (SK-MEL-28): > 100 µM (inactive)
GI50 (Hs-578T): > 100 µM (inactive)
GI50 (HCT-15): > 100 µM
GI50 (KM12): > 100 µM (inactive)
GI50 (HCC 2998): > 100 µM (inactive)
GI50 (MOLT-4): > 100 µM (inactive)
GI50 (PC-3): > 100 µM (inactive)
GI50 (DU-145): > 100 µM (inactive)
GI50 (SK-OV-3): > 100 µM (inactive)
GI50 (U-251): > 100 µM (inactive)
GI50 (M14): > 100 µM (inactive)
GI50 (SK-MEL-2): > 100 µM (inactive)
GI50 (TK-10): > 100 µM (inactive)
GI50 (SN12C): > 100 µM (inactive)
GI50 (HL-60): > 100 µM (inactive)
GI50 (EKVX): > 100 µM (inactive)
GI50 (HOP-62): > 100 µM (inactive)
GI50 (OVCAR-8): > 100 µM (inactive)
GI50 (A498): > 100 µM (inactive)
GI50 (HCT-116): > 100 µM (inactive)
GI50 (T47D): > 100 µM (inactive)
GI50 (NCI-H460): > 100 µM (inactive)
GI50 (SF-295): > 100 µM (inactive)
GI50 (MDA-MB-435): > 100 µM (inactive)
GI50 (COLO 205): > 100 µM (inactive)
GI50 (NCI-H522): > 100 µM (inactive)
GI50 (CCRF-CEM): > 100 µM (inactive)
GI50 (BT-549): > 100 µM (inactive)
GI50 (OVCAR-4): > 100 µM (inactive)
GI50 (UACC-62): > 100 µM (inactive)
GI50 (SNB-75): > 100 µM (inactive)
GI50 (CAKI-1): > 100 µM (inactive)
GI50 (HT-29): > 100 µM (inactive)
GI50 (786-0): > 100 µM (inactive)
GI50 (NCI/ADR-RES): > 100 µM (inactive)
GI50 (UO-31): > 100 µM (inactive)
GI50 (SR): > 100 µM (inactive)
GI50 (LOX IMVI): > 100 µM (inactive)
GI50 (K562): > 100 µM (inactive)
GI50 (SK-MEL-5): > 100 µM (inactive)
GI50 (ACHN): > 100 µM (inactive)
GI50 (MCF7): > 100 µM (inactive)
GI50 (RXF 393): > 100 µM (inactive)
GI50 (NCI-H226): > 100 µM (inactive)
GI50 (IGROV-1): 46.5 µM (inactive)
GI50 (MDA-N): > 100 µM (inactive)
GI50 (MDA-MB-231): > 100 µM (inactive)
GI50 (NCI-H23): > 100 µM (inactive)
GI50 (A549): > 100 µM (inactive)
GI50 (OVCAR-5): > 100 µM (inactive)

COC(=O)c1ccccc1CC1Cc2ccc3c(c2C1=O)CCC3 (stereo unspecified)
GI50 (SW-620): 99.1 µM (inactive)
GI50 (OVCAR-3): > 100 µM (inactive)
GI50 (SNB-19): > 100 µM (inactive)
GI50 (RPMI-8226): 30.9 µM (inactive)
GI50 (UACC-257): 32.4 µM (inactive)
GI50 (SF-268): > 100 µM (inactive)
GI50 (SK-MEL-28): 37.2 µM (inactive)
GI50 (Hs-578T): 43.3 µM (inactive)
GI50 (HCT-15): 50 µM
GI50 (KM12): 64.9 µM (inactive)
GI50 (HCC 2998): 28.2 µM (inactive)
GI50 (SF-539): > 100 µM (inactive)
GI50 (MOLT-4): 25.1 µM (inactive)
GI50 (PC-3): 22.5 µM (inactive)
GI50 (DU-145): > 100 µM (inactive)
GI50 (SK-OV-3): > 100 µM (inactive)
GI50 (U-251): 51.1 µM (inactive)
GI50 (M14): 39.5 µM (inactive)
GI50 (SK-MEL-2): 43.9 µM (inactive)
GI50 (TK-10): > 100 µM (inactive)
GI50 (SN12C): > 100 µM (inactive)
GI50 (HL-60): 16.6 µM (inactive)
GI50 (EKVX): 25.6 µM (inactive)
GI50 (HOP-62): > 100 µM (inactive)
GI50 (OVCAR-8): 49.5 µM (inactive)
GI50 (HCT-116): 37.1 µM (inactive)
GI50 (T47D): 19.7 µM (inactive)
GI50 (NCI-H460): 92.3 µM (inactive)
GI50 (SF-295): 57.1 µM (inactive)
GI50 (MDA-MB-435): 24.9 µM (inactive)
GI50 (COLO 205): 29.9 µM (inactive)
GI50 (NCI-H522): 22.1 µM (inactive)
GI50 (CCRF-CEM): 55.8 µM (inactive)
GI50 (BT-549): 34.7 µM (inactive)
GI50 (OVCAR-4): 29.9 µM (inactive)
GI50 (Malme-3M): 28.8 µM (inactive)
GI50 (UACC-62): 39.5 µM (inactive)
GI50 (SNB-75): 13.8 µM (inactive)
GI50 (CAKI-1): 55.1 µM (inactive)
GI50 (HT-29): 27.9 µM (inactive)
GI50 (786-0): 80.5 µM (inactive)
GI50 (NCI/ADR-RES): 28.8 µM (inactive)
GI50 (UO-31): 49.4 µM (inactive)
GI50 (SR): 31 µM (inactive)
GI50 (HOP-92): 22.4 µM (inactive)
GI50 (LOX IMVI): 29.5 µM (inactive)
GI50 (K562): 33.2 µM (inactive)
GI50 (SK-MEL-5): 23 µM (inactive)
GI50 (ACHN): 41.5 µM (inactive)
GI50 (MCF7): 20.7 µM (inactive)
GI50 (RXF 393): 35.4 µM (inactive)
GI50 (NCI-H226): 77.8 µM (inactive)
GI50 (IGROV-1): > 100 µM (inactive)
GI50 (MDA-N): 33.5 µM (inactive)
GI50 (MDA-MB-231): 46.2 µM (inactive)
GI50 (NCI-H23): 39.6 µM (inactive)
GI50 (A549): > 100 µM (inactive)
GI50 (OVCAR-5): > 100 µM (inactive)

COC(=O)C1=C(O)C(C(=O)OC)[C@@]2(O)[C@@H](C(=O)OC)C(c3ccc(OC(=O)/C(=C/c4ccccc4)c4ccccc4)cc3)C[C@@H]1[C@@H]2C(=O)OC (stereo partly specified)
GI50 (SW-620): 8.09 µM (inactive)
GI50 (OVCAR-3): 35.6 µM (inactive)
GI50 (SNB-19): 30 µM (inactive)
GI50 (UACC-257): 18.9 µM (inactive)
GI50 (SF-268): 47.3 µM (inactive)
GI50 (SK-MEL-28): 81.5 µM (inactive)
GI50 (Hs-578T): 27.7 µM (inactive)
GI50 (HCT-15): 7.18 µM
GI50 (KM12): 27.9 µM (inactive)
GI50 (SF-539): 2.46 µM (inactive)
GI50 (MOLT-4): 3.72 µM (inactive)
GI50 (PC-3): 32.5 µM (inactive)
GI50 (DU-145): 20.5 µM (inactive)
GI50 (SK-OV-3): > 100 µM (inactive)
GI50 (U-251): 11.2 µM (inactive)
GI50 (M14): 7.03 µM (inactive)
GI50 (SK-MEL-2): 14.9 µM (inactive)
GI50 (TK-10): 13.2 µM (inactive)
GI50 (SN12C): 30.8 µM (inactive)
GI50 (HL-60): 17.4 µM (inactive)
GI50 (EKVX): 64.6 µM (inactive)
GI50 (HOP-62): > 100 µM (inactive)
GI50 (OVCAR-8): 14.1 µM (inactive)
GI50 (A498): 40.8 µM (inactive)
GI50 (HCT-116): 5 µM (inactive)
GI50 (T47D): > 100 µM (inactive)
GI50 (NCI-H460): 5.21 µM (inactive)
GI50 (SF-295): 38.1 µM (inactive)
GI50 (MDA-MB-435): 10.5 µM (inactive)
GI50 (COLO 205): 40 µM (inactive)
GI50 (NCI-H522): 13.3 µM (inactive)
GI50 (CCRF-CEM): 4.9 µM (inactive)
GI50 (BT-549): > 100 µM (inactive)
GI50 (OVCAR-4): 16.9 µM (inactive)
GI50 (Malme-3M): > 100 µM (inactive)
GI50 (UACC-62): 3.47 µM (inactive)
GI50 (SNB-75): 12.1 µM (inactive)
GI50 (CAKI-1): 11.9 µM (inactive)
GI50 (HT-29): 25.4 µM (inactive)
GI50 (786-0): 6.46 µM (inactive)
GI50 (NCI/ADR-RES): 44.2 µM (inactive)
GI50 (UO-31): 10.9 µM (inactive)
GI50 (SR): 6.73 µM (inactive)
GI50 (HOP-92): 14.4 µM (inactive)
GI50 (LOX IMVI): 4.71 µM (inactive)
GI50 (K562): 9.25 µM (inactive)
GI50 (SK-MEL-5): 26.8 µM (inactive)
GI50 (ACHN): 19.7 µM (inactive)
GI50 (MCF7): 10.5 µM (inactive)
GI50 (RXF 393): 9.71 µM (inactive)
GI50 (NCI-H226): 9.86 µM (inactive)
GI50 (IGROV-1): 19 µM (inactive)
GI50 (MDA-N): 6.35 µM (inactive)
GI50 (MDA-MB-231): 23.9 µM (inactive)
GI50 (NCI-H23): > 100 µM (inactive)
GI50 (A549): 69.2 µM (inactive)
GI50 (OVCAR-5): 80.4 µM (inactive)
